Assay results taken from paper PMC9814781, “Structure-based design of a dual-warhead covalent inhibitor of FGFR4” (Communications Chemistry, 2022).

Assays:
Assay in all cases: Kinase selectivity profiling
IKK-alpha(CHUK) = IKK-alpha(CHUK) (Homo sapiens, UniProt O15111)
p38α = p38α (Homo sapiens, UniProt Q16539)
PKD2 = PKD2 (Homo sapiens, UniProt Q9BZL6)
IGF1R = IGF1R (Homo sapiens, UniProt P08069)
ZAP70 = ZAP70 (Homo sapiens, UniProt P43403)
EPHA5 = EPHA5 (Homo sapiens, UniProt P54756)
PLK3 = PLK3 (Homo sapiens, UniProt Q9H4B4)
NEK2 = NEK2 (Homo sapiens, UniProt P51955)
EPHA8 = EPHA8 (Homo sapiens, UniProt P29322)
PIK3CA/PIK3R1 = PIK3CA/PIK3R1 (Homo sapiens, UniProt P42336)
IRR = IRR (Homo sapiens, UniProt P14616)
JAK2 = JAK2 (Homo sapiens, UniProt O60674)
PDGFRβ = PDGFRβ (Homo sapiens, UniProt P09619)
MAP3K3 = MAP3K3 (Homo sapiens, UniProt Q99759)
GLK = GLK (Homo sapiens, UniProt Q8IVH8)
YES = YES (Homo sapiens, UniProt P07947)
SGK3 = SGK3 (Homo sapiens, UniProt Q96BR1)
AurB = AurB (Homo sapiens, UniProt Q96GD4)
FGFR2 = FGFR2 (Homo sapiens, UniProt P21802)
CK2α1/β = CK2α1/β (Homo sapiens, UniProt P68400)
MAP4K2 = MAP4K2 (Homo sapiens, UniProt Q12851)
AurC = AurC (Homo sapiens, UniProt Q9UQB9)
CK1α(CSNK1A1) = CK1α(CSNK1A1) (Homo sapiens, UniProt P48729)
FLT3 = FLT3 (Homo sapiens, UniProt P36888)
p38γ = p38γ (Homo sapiens, UniProt P53778)
TNIK = TNIK (Homo sapiens, UniProt Q9UKE5)
RSK2 = RSK2 (Homo sapiens, UniProt P51812)
PIM1 = PIM1 (Homo sapiens, UniProt P11309)
FGFR1 = FGFR1 (Homo sapiens, UniProt P11362)
IKK-beta = IKK-beta (Homo sapiens, UniProt O14920)
DAPK1 = DAPK1 (Homo sapiens, UniProt P53355)
PYK2 = PYK2 (Homo sapiens, UniProt Q14289)
PIK3CD/PIK3R1 = PIK3CD/PIK3R1 (Homo sapiens, UniProt O00329)
PAK4 = PAK4 (Homo sapiens, UniProt O96013)
JNK3 = JNK3 (Homo sapiens, UniProt P53779)
JNK2 = JNK2 (Homo sapiens, UniProt P45984)
MAP2K1 = MAP2K1 (Homo sapiens, UniProt Q02750)
DYRK4 = biological target: T1, DYRK4 (Homo sapiens, UniProt Q9NR20); type: biochemical; conditions: DYRK4, 1000 nM
T1 construct: purchased ICE Bioscience

NEK9 = NEK9 (Homo sapiens, UniProt Q8TD19)
DDR1 = DDR1 (Homo sapiens, UniProt Q08345)
AurA = AurA (Homo sapiens, UniProt O14965)

Chain of ZAP70 (P43403 whole entry): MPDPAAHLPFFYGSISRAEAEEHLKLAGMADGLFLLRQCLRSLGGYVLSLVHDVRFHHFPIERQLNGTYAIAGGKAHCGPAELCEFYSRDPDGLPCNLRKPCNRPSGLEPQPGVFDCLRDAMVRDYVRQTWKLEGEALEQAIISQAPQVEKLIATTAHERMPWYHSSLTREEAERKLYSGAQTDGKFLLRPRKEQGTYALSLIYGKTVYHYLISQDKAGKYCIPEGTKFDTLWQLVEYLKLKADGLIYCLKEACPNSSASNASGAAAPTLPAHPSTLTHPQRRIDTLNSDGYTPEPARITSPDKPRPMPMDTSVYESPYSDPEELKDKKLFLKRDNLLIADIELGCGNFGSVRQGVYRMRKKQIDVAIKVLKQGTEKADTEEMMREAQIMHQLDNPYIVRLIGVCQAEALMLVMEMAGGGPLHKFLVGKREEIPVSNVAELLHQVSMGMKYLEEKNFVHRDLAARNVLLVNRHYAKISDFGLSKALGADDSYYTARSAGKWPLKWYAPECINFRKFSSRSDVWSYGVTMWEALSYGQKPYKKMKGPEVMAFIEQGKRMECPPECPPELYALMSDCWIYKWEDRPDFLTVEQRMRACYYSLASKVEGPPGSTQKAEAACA
Chain of FGFR1 (P11362 22-822): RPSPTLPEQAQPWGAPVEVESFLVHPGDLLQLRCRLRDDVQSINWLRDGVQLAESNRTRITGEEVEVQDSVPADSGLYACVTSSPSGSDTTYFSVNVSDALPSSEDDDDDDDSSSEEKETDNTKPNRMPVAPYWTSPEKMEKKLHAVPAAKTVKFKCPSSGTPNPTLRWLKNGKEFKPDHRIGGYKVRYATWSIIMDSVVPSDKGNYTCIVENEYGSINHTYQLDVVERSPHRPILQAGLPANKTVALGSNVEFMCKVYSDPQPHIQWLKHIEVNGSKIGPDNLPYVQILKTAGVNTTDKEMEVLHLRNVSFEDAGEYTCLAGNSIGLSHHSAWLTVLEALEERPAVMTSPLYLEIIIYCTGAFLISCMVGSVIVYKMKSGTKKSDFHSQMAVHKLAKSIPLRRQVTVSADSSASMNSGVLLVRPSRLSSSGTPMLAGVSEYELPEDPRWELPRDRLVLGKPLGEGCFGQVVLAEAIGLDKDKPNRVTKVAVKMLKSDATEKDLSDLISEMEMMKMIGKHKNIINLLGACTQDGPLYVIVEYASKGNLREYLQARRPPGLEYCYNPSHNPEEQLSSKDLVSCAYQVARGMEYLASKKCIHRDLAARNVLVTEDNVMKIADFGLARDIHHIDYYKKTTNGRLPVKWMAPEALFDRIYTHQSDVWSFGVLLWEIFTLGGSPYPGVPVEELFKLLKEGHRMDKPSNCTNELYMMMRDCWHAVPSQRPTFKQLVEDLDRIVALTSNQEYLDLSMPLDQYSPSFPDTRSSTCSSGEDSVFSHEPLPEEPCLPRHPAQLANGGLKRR
Chain of IKK-beta (O14920 whole entry): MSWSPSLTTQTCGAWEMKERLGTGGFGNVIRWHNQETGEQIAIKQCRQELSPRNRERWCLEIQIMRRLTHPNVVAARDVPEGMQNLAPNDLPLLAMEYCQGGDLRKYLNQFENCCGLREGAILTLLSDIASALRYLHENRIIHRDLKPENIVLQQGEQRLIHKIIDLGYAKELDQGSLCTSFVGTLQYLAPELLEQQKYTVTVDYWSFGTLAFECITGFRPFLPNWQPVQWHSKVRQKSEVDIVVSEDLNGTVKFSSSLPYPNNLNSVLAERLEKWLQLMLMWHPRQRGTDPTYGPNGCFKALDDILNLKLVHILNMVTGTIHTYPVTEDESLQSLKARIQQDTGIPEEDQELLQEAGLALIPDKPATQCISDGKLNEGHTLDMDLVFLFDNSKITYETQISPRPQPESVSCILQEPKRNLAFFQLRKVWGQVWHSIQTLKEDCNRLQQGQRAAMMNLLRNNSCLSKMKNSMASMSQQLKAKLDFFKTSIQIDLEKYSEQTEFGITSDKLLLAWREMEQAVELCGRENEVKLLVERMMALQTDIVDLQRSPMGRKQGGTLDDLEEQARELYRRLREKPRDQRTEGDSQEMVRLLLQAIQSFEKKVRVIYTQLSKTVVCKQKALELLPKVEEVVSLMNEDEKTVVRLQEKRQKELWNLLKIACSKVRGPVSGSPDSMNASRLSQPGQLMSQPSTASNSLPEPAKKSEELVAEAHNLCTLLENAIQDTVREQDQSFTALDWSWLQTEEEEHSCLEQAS
Chain of p38α (Q16539 whole entry): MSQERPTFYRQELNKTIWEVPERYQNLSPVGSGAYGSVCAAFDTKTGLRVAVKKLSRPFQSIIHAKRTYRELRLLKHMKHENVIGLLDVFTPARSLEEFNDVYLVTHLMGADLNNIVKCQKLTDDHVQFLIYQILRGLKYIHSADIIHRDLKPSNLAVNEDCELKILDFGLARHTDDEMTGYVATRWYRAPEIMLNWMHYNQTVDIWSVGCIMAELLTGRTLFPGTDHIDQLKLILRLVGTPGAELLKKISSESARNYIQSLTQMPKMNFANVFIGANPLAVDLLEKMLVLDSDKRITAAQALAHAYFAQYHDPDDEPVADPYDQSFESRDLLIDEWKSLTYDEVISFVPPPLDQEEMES
Chain of EPHA8 (P29322 28-1005): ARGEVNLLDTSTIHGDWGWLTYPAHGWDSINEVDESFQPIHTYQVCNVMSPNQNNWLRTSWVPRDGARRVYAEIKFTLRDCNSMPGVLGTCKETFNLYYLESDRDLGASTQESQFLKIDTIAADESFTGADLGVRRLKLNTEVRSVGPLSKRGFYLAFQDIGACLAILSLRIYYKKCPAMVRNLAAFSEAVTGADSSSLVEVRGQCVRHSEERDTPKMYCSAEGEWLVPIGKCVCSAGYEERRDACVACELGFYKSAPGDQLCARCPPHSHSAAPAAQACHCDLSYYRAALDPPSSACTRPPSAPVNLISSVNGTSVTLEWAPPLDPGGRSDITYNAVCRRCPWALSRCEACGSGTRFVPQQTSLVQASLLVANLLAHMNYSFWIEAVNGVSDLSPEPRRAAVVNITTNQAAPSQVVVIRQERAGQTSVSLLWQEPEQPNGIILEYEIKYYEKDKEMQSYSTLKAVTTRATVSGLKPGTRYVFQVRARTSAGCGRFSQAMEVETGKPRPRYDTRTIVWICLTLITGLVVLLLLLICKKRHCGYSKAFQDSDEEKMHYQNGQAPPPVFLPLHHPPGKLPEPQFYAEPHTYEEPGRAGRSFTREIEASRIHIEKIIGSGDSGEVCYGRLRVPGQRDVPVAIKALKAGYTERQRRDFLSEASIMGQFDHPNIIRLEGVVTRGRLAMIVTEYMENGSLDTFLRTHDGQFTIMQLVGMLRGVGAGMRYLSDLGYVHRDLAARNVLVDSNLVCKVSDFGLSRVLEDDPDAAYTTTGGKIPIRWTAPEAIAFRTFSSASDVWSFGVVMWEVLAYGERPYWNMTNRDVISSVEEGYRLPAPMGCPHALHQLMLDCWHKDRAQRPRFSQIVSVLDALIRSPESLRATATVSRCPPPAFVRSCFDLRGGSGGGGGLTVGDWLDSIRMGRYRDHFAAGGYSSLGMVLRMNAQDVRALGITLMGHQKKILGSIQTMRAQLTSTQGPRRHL
Chain of PIM1 (P11309 whole entry): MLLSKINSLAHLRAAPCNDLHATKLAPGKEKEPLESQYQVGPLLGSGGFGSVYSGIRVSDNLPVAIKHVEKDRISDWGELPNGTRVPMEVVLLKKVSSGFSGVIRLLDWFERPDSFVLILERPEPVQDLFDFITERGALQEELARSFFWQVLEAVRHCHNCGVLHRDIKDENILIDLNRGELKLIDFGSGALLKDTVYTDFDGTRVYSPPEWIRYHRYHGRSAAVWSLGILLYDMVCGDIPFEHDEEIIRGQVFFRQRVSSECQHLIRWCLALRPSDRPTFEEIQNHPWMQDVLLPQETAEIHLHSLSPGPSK
Chain of JNK3 (P53779 whole entry): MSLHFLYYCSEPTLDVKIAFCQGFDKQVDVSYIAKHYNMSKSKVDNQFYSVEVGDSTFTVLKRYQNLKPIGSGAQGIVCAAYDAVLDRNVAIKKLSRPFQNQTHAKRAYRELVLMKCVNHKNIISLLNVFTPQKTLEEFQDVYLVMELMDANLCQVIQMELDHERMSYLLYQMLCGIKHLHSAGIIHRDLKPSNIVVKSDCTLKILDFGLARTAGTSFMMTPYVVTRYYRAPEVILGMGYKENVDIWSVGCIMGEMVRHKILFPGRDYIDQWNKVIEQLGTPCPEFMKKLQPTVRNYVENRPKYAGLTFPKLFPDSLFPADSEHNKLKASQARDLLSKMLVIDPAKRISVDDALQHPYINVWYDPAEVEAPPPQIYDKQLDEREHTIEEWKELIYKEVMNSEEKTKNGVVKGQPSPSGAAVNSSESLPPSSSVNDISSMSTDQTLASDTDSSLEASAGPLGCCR
Chain of MAP3K3 (Q99759 whole entry): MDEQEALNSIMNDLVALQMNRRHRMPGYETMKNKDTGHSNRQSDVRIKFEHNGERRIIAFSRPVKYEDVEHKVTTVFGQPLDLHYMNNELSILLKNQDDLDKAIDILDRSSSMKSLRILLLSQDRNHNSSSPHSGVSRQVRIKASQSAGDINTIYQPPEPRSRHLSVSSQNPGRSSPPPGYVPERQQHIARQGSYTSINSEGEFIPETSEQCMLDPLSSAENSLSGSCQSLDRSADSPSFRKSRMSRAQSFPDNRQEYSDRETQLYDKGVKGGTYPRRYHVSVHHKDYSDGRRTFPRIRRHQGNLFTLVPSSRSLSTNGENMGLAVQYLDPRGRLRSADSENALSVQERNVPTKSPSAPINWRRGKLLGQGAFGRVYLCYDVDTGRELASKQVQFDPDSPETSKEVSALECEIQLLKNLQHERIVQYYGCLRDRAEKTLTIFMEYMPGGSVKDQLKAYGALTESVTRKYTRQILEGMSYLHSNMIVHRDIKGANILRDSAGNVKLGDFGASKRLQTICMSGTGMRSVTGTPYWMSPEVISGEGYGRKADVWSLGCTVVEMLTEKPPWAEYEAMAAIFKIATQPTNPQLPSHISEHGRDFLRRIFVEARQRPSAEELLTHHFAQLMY

`C=CC(=O)Nc1ccccc1Nc1ncc2c(n1)N(CCCN1CCN(C(=O)C=C)CC1)C(=O)N(c1cc(OC)cc(OC)c1)C2` [CXF-009] showed an inhibition at 1 µM (IKK-alpha(CHUK)) of 2.35%, an inhibition at 1 µM (p38α) of 10.6% and an inhibition at 1 µM (PKD2) of 0.08%. For the same compound, the inhibition at 1 µM (IGF1R) was -2.13%, the inhibition at 1 µM (ZAP70) was 11.8% and the inhibition at 1 µM (EPHA5) was 8.67%. It also gave an inhibition at 1 µM (PLK3) of -1.12%, an inhibition at 1 µM (NEK2) of 17.9% and an inhibition at 1 µM (EPHA8) of -0.52%. For the same compound, the inhibition at 1 µM (PIK3CA/PIK3R1) was -35%, the inhibition at 1 µM (IRR) was -3.5% and the inhibition at 1 µM (JAK2) was 0.56%. It also gave an inhibition at 1 µM (PDGFRβ) of -6.88%, an inhibition at 1 µM (MAP3K3) of -1.62% and an inhibition at 1 µM (GLK) of 2.68%. The inhibition at 1 µM (YES) was -7.61%, the inhibition at 1 µM (SGK3) was 1.58% and the inhibition at 1 µM (AurB) was -2.47%. The inhibition at 1 µM (FGFR2) was 0.27%, the inhibition at 1 µM (CK2α1/β) was -3.22% and the inhibition at 1 µM (MAP4K2) was 1.43%. The inhibition at 1 µM (AurC) was 2.77%, the inhibition at 1 µM (CK1α(CSNK1A1)) was 2.6% and the inhibition at 1 µM (FLT3) was -1.11%. It also gave an inhibition at 1 µM (p38γ) of 0.13%, an inhibition at 1 µM (TNIK) of -13.4% and an inhibition at 1 µM (RSK2) of 2.24%. For the same compound, the inhibition at 1 µM (PIM1) was 24.2%, the inhibition at 1 µM (FGFR1) was 4.98% and the inhibition at 1 µM (IKK-beta) was 19%. It also gave an inhibition at 1 µM (DAPK1) of 2.52%, an inhibition at 1 µM (PYK2) of 2.11% and an inhibition at 1 µM (PIK3CD/PIK3R1) of -44.4%. It also gave an inhibition at 1 µM (PAK4) of 6.5%, an inhibition at 1 µM (JNK3) of -3.67% and an inhibition at 1 µM (JNK2) of 0.4%. It also gave an inhibition at 1 µM (MAP2K1) of 0.59%, an inhibition at 1 µM (DYRK4) of 1.84% and an inhibition at 1 µM (NEK9) of 5.11%. It also gave an inhibition at 1 µM (DDR1) of -3.41% and an inhibition at 1 µM (AurA) of 15.4%.
